Test results: BindingDB's records for doi:10.1016/j.ab.2004.03.009 (Schering-Plough Research Institute, 2004)

target: E3 ubiquitin-protein ligase Mdm2 (Homo sapiens, UniProt Q00987); assay: Fluorescence Polarization (FP) Binding Assay; settings: pH 7.4; 23 °C
Method: Ki values were determined from a competition experiment in which serial dilutions of inhibitor were added to compete against a fixed concentration (1 or 10 nM) of the fluorescent ligand for binding to a fixed concentration of the protein. Ki value was determined by nonlinear regression fitting of the competition curve using a set of custom equations and an Excel curve fitting tool.

Sequence of E3 ubiquitin-protein ligase Mdm2 (Q00987 whole entry): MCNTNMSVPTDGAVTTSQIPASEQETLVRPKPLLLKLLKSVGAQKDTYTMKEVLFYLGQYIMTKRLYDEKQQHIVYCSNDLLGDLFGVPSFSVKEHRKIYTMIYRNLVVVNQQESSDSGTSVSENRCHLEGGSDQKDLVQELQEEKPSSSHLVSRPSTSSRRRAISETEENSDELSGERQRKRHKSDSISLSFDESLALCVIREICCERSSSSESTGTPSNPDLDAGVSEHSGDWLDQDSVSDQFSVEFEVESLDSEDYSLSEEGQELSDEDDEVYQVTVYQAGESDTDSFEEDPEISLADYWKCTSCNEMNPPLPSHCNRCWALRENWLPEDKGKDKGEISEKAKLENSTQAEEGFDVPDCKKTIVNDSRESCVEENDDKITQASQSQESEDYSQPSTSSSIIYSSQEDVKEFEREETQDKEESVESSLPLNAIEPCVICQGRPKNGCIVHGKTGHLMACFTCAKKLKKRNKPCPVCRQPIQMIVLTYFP

SMILES	Ki [nM]
O=C(N[C@@H](Cc1c[nH]c2cc(Br)ccc12)C(=O)O)c1ccccc1Oc1ccccc1 [2-phenoxybenzoyltryptophan derivative, R1C1]	3000
O=C(N[C@@H](Cc1cn(C(=O)CCC2CCCC2)c2cc(Br)ccc12)C(=O)O)c1ccccc1Oc1ccccc1 [2-phenoxybenzoyltryptophan derivative, R1C2]	800
O=C(N[C@@H](Cc1cn(C(=O)OCc2ccccc2)c2cc(Br)ccc12)C(=O)O)c1ccccc1Oc1ccccc1 [2-phenoxybenzoyltryptophan derivative, R1C3]	500
O=C(N[C@@H](Cc1cn(Cc2ccc(OCc3ccccc3)cc2)c2cc(Br)ccc12)C(=O)O)c1ccccc1Oc1ccccc1 [2-phenoxybenzoyltryptophan derivative, R1C4]	600
O=C(N[C@@H](Cc1c[nH]c2cc(Cl)ccc12)C(=O)O)c1ccccc1Oc1ccccc1 [2-phenoxybenzoyltryptophan derivative, R2C1]	6000
O=C(N[C@@H](Cc1cn(C(=O)CCC2CCCC2)c2cc(Cl)ccc12)C(=O)O)c1ccccc1Oc1ccccc1 [2-phenoxybenzoyltryptophan derivative, R2C2]	800
O=C(N[C@@H](Cc1cn(C(=O)OCc2ccccc2)c2cc(Cl)ccc12)C(=O)O)c1ccccc1Oc1ccccc1 [2-phenoxybenzoyltryptophan derivative, R2C3]	600
O=C(N[C@@H](Cc1cn(Cc2ccc(OCc3ccccc3)cc2)c2cc(Cl)ccc12)C(=O)O)c1ccccc1Oc1ccccc1 [2-phenoxybenzoyltryptophan derivative, R2C4]	1000
O=C(N[C@@H](Cc1c[nH]c2cc(F)ccc12)C(=O)O)c1ccccc1Oc1ccccc1 [2-phenoxybenzoyltryptophan derivative, R3C1]	20000
O=C(N[C@@H](Cc1cn(C(=O)CCC2CCCC2)c2cc(F)ccc12)C(=O)O)c1ccccc1Oc1ccccc1 [2-phenoxybenzoyltryptophan derivative, R3C2]	400
O=C(N[C@@H](Cc1cn(C(=O)OCc2ccccc2)c2cc(F)ccc12)C(=O)O)c1ccccc1Oc1ccccc1 [2-phenoxybenzoyltryptophan derivative, R3C3]	800
O=C(N[C@@H](Cc1cn(Cc2ccc(OCc3ccccc3)cc2)c2cc(F)ccc12)C(=O)O)c1ccccc1Oc1ccccc1 [2-phenoxybenzoyltryptophan derivative, R3C4]	2000
N#Cc1ccc2[nH]cc(C[C@H](NC(=O)c3ccccc3Oc3ccccc3)C(=O)O)c2c1 [2-phenoxybenzoyltryptophan derivative, R4C1]	10000
N#Cc1ccc2c(c1)c(C[C@H](NC(=O)c1ccccc1Oc1ccccc1)C(=O)O)cn2C(=O)CCC1CCCC1 [2-phenoxybenzoyltryptophan derivative, R4C2]	600
N#Cc1ccc2c(c1)c(C[C@H](NC(=O)c1ccccc1Oc1ccccc1)C(=O)O)cn2C(=O)OCc1ccccc1 [2-phenoxybenzoyltryptophan derivative, R4C3]	600
N#Cc1ccc2c(c1)c(C[C@H](NC(=O)c1ccccc1Oc1ccccc1)C(=O)O)cn2Cc1ccc(OCc2ccccc2)cc1 [2-phenoxybenzoyltryptophan derivative, R4C4]	1000
Cc1ccc2[nH]cc(C[C@H](NC(=O)c3ccccc3Oc3ccccc3)C(=O)O)c2c1 [2-phenoxybenzoyltryptophan derivative, R5C1]	10000
Cc1ccc2c(c1)c(C[C@H](NC(=O)c1ccccc1Oc1ccccc1)C(=O)O)cn2C(=O)CCC1CCCC1 [2-phenoxybenzoyltryptophan derivative, R5C2]	200
Cc1ccc2c(c1)c(C[C@H](NC(=O)c1ccccc1Oc1ccccc1)C(=O)O)cn2C(=O)OCc1ccccc1 [2-phenoxybenzoyltryptophan derivative, R5C3]	100
Cc1ccc2c(c1)c(C[C@H](NC(=O)c1ccccc1Oc1ccccc1)C(=O)O)cn2Cc1ccc(OCc2ccccc2)cc1 [2-phenoxybenzoyltryptophan derivative, R5C4]	600
